# Results published in patent publication US9271969B2, “Compounds as inhibitors of diacylglycerol O-acyltransferase type 1 enzyme” (KAINOS MEDICINE, INC., priority 2012, dated 2016).
# Assays:
# [1] = biological target: mouse DGAT1 (Mus musculus (Mouse), UniProt Q9Z2A7); experiment: Radiometric DGAT1 assay, mouse liver microsomes; type: biochemical; conditions: mouse liver microsomes having mouse DGAT1 activity
# Source text: (§1) A second source of DGAT1 activity was human or mouse liver microsomes.
# [2] = biological target: T1, human DGAT1 (Homo sapiens (Human), UniProt O75907); experiment: biochemical
# Procedure: For this assay, a source of DGAT1 was needed. In that regard, a commercially available plasmid for expression of DGAT1 (e.g., pCMV6-recombinant human DGAT1 plasmid) was transfected for 24 hours in Hep3B cells. After transfection of the plasmid, human DGAT-1 expression was analyzed by Western blot or RT-PCR using whole cell extracts. […] Human and mouse DGAT activity were determined as follows.
# The plates were sealed, incubated overnight and counted the next morning on a liquid scintillation counter and luminometer.
# DGAT1 catalyzes the transfer of the radiolabelled decanoyl group onto the sn-3 position of didecanoyl glycerol. The resultant radiolabeled tridecanoyl glycerol (tricaprin) preferentially binds to the hydrophobic coating on the phospholipid-coated radiometric assay plate. The proximity of the radiolabeled product to the solid scintillant incorporated into the bottom of the radiometric assay plate induced for release from the scintillant, which was measured in the liquid scintillation counter and luminometer.
# IC50 values of the compounds were determined from concentration-dependent inhibition curves by using commercially available software.
# [3] = biological target: T1, human DGAT1; experiment: Radiometric DGAT1 assay, human liver microsomes; type: biochemical; conditions: Source of human DGAT activity B = human liver microsomes
# Source text: as §1
# Sequence of mouse DGAT1 (Q9Z2A7 whole entry): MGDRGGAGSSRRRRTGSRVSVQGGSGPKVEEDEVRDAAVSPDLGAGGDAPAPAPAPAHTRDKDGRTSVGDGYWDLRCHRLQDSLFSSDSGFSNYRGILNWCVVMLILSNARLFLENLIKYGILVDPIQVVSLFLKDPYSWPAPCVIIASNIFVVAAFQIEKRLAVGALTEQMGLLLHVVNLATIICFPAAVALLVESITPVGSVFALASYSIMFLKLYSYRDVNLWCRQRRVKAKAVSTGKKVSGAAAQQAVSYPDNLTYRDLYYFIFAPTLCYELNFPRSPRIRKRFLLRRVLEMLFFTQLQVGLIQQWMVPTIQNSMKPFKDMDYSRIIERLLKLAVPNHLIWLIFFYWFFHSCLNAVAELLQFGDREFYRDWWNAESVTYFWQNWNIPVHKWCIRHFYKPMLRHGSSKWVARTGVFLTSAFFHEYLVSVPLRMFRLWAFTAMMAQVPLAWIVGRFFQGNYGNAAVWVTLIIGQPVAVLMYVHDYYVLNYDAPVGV
# T1 sequence (O75907 whole entry): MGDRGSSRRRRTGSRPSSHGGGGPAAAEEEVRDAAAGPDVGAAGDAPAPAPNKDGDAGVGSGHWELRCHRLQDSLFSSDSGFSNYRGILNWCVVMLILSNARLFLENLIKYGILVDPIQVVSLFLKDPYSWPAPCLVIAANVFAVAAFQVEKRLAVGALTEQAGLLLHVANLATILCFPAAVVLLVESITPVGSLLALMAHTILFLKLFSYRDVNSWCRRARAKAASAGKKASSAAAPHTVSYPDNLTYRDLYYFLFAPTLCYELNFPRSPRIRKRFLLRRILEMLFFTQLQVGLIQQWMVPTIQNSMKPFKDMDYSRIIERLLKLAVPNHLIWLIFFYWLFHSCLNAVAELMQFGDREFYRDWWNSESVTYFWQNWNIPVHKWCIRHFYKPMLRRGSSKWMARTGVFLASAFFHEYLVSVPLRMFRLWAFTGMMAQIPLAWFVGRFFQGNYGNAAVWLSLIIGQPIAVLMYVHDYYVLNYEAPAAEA
IC50 [1] [nM],IC50 [2] [nM],IC50 [3] [nM],Compound
< 50,< 10,,"O=C(O)C[C@H]1CC[C@H](c2ccc(-c3ccc4nc(C(=O)NCc5ccc(OC(F)(F)F)cc5)cn4c3)cc2)CC1 [Compound 1, 2-((1r,4r)-4-(4-(2-((4-(Trifluoromethoxy)benzyl)carbamoyl)imidazo[1,2-a]pyridin-6-yl)phenyl)cyclohexyl)acetic acid]"
< 200,< 10,,"O=C(O)C[C@H]1CC[C@H](c2ccc(-c3ccc4nc(C(=O)Nc5ccc(C(F)(F)F)cc5)cn4c3)cc2)CC1 [Compound 2, 2-((1r,4r)-4-(4-(2-((4-(Trifluoromethyl)phenyl)carbamoyl)imidazo[1,2-a]pyridin-6-yl)phenyl)-cyclohexyl)acetic acid]"
< 75,< 10,,"O=C(O)C[C@H]1CC[C@H](c2ccc(-c3ccc4nc(C(=O)Nc5ccc(OC(F)(F)F)cc5)cn4c3)cc2)CC1 [Compound 3, 2-((1r,4r)-4-(4-(2-((4-(Trifluoromethoxy)phenyl)carbamoyl)imidazo[1,2-a]pyridin-6-yl)-phenyl)cyclohexyl)acetic acid]"
< 75,,< 150,"O=C(O)C[C@H]1CC[C@H](c2ccc(-c3ccc4nc(C(=O)NCc5ccc(C(F)(F)F)cc5)cn4c3)cc2)CC1 [Compound 4, 2-((1r,4r)-4-(4-(2-((4-(Trifluoromethyl)benzyl)carbamoyl)imidazo[1,2-a]pyridin-6-yl)-phenyl)cyclohexyl)acetic acid]"
< 125,,< 100,"O=C(O)C[C@H]1CC[C@H](c2ccc(-c3ccc4nc(C(=O)Nc5cccc(OC(F)(F)F)c5)cn4c3)cc2)CC1 [Compound 5, 2-((1r,4r)-4-(4-(2-((3-(Trifluoromethoxy)phenyl)carbamoyl)imidazo[1,2-a]pyridin-6-yl)-phenyl)cyclohexyl)acetic acid]"
< 150,,< 75,"O=C(O)C[C@H]1CC[C@H](c2ccc(-c3ccc4nc(C(=O)Nc5cccc(C(F)(F)F)c5)cn4c3)cc2)CC1 [Compound 6, 2-((1r,4r)-4-(4-(2-((3-(Trifluoromethyl)phenyl)carbamoyl)imidazo[1,2-a]pyridin-6-yl)-phenyl)cyclohexyl)acetic acid]"
< 100,,< 175,"O=C(O)C[C@H]1CC[C@H](c2ccc(-c3ccc4nc(C(=O)NCc5cccc(OC(F)(F)F)c5)cn4c3)cc2)CC1 [Compound 7, 2-((1r,4r)-4-(4-(2-((3-(Trifluoromethoxy)benzyl)carbamoyl)imidazo[1,2-a]pyridin-6-yl)-phenyl)cyclohexyl)acetic acid]"
< 50,,< 125,"CC(C)(C)c1ccc(CNC(=O)c2cn3cc(-c4ccc([C@H]5CC[C@H](CC(=O)O)CC5)cc4)ccc3n2)cc1 [Compound 8, 2-((1r,4r)-4-(4-(2-((4-(tert-Butyl)benzyl)carbamoyl)imidazo[1,2-a]pyridin-6-yl)phenyl)-cyclohexyl)acetic acid]"
< 50,< 50,,"O=C(O)C[C@H]1CC[C@H](c2ccc(-c3ccc4nc(C(=O)NCc5cc(OC(F)(F)F)ccc5F)cn4c3)cc2)CC1 [Compound 9, 2-((1r,4r)-4-(4-(2-((2-Fluoro-5-(trifluoromethoxy)benzyl)carbamoyl)imidazo[1,2-a]pyridin-6-yl)phenyl)cyclohexyl)acetic acid]"
< 75,< 75,,"O=C(O)C[C@H]1CC[C@H](c2ccc(-c3ccc4nc(C(=O)NCc5ccc(F)c(OC(F)(F)F)c5)cn4c3)cc2)CC1 [Compound 10, 2-((1r,4r)-4-(4-(2-((4-Fluoro-3-(trifluoromethoxy)benzyl)carbamoyl)imidazo[1,2-a]pyridin-6-yl)phenyl)cyclohexyl)acetic acid]"
< 25,,< 25,"COc1ccc(CNC(=O)c2cn3cc(-c4ccc([C@H]5CC[C@H](CC(=O)O)CC5)cc4)ccc3n2)cc1OC [Compound 23, 2-((1r,4r)-4-(4-(2-((3,4-Dimethoxybenzyl)carbamoyl)imidazo[1,2-a]pyridin-6-yl)phenyl)-cyclohexyl)acetic acid]"
< 100,,< 50,"O=C(O)C[C@H]1CC[C@H](c2ccc(-c3ccc4nc(C(=O)NCc5ccccc5)cn4c3)cc2)CC1 [Compound 31, 2-((1r,4r)-4-(4-(2-(Benzylcarbamoyl)imidazo[1,2-a]pyridin-6-yl)phenyl)cyclohexyl)acetic acid]"
< 75,,< 25,"COc1ccccc1CNC(=O)c1cn2cc(-c3ccc([C@H]4CC[C@H](CC(=O)O)CC4)cc3)ccc2n1 [Compound 41, 2-((1r,4r)-4-(4-(2-((2-Methoxybenzyl)carbamoyl)imidazo[1,2-a]pyridin-6-yl)phenyl)cyclohexyl)acetic acid]"
< 10,,< 10,"O=C(O)CC1CCC(c2ccc(-c3ccc4nc(C(=O)NCc5c(F)cc(Cl)cc5F)cn4c3)cc2)CC1 (centres unmarked) [Compound 42, 2-((1s,4s)-4-(4-(2-((4-chloro-2,6-difluorobenzyl)carbamoyl)imidazo[1,2-a]pyridin-6-yl)phenyl)cyclohexyl)acetic acid]"
< 10,,< 10,"Cc1cc(Cl)cc(Cl)c1CNC(=O)c1cn2cc(-c3ccc(C4CCC(CC(=O)O)CC4)cc3)ccc2n1 (centres unmarked) [Compound 43, 2-((1s,4s)-4-(4-(2-((2,4-Dichloro-6-methylbenzyl)carbamoyl)imidazo[1,2-a]pyridin-6-yl)phenyl)cyclohexyl)acetic acid]"
< 10,,< 25,"Cc1cc(C)c(CNC(=O)c2cn3cc(-c4ccc(C5CCC(CC(=O)O)CC5)cc4)ccc3n2)c(C)c1 (centres unmarked) [Compound 44, 2-((1s,4s)-4-(4-(2-((2,4,6-Trimethylbenzyl)carbamoyl)imidazo[1,2-a]pyridin-6-yl)phenyl)cyclohexyl)acetic acid]"
< 50,,< 50,"Cc1ccc(CNC(=O)c2nc3ccc(-c4ccc(C5CCC(CC(=O)O)CC5)cc4)cn3n2)cc1 (centres unmarked) [Compound 45, 2-((1s,4s)-4-(4-(2-((4-Methylbenzyl)carbamoyl)-[1,2,4]triazolo[1,5-a]pyridin-6-yl)phenyl)cyclohexyl)acetic acid]"
< 50,,< 1,"CC(C)(C)c1ccc(CNC(=O)c2cn3cc(-c4ccc([C@H]5CC[C@H](CC(=O)O)CC5)cc4)sc3n2)cc1 [Compound 46, 2-((1r,4r)-4-(4-(6-((4-(tert-Butyl)benzyl)carbamoyl)imidazo[2,1-b]thiazol-2-yl)phenyl)-cyclohexyl)acetic acid]"
< 25,,< 50,"O=C(O)C[C@H]1CC[C@H](c2ccc(-c3cn4cc(C(=O)NCc5cccc(OC(F)(F)F)c5)nc4s3)cc2)CC1 [Compound 50, 2-((1r,4r)-4-(4-(6-((3-(Trifluoromethoxy)benzyl)carbamoyl)imidazo[2,1-b]thiazol-2-yl)-phenyl)cyclohexyl)acetic acid]"
< 50,,< 50,"O=C(O)C[C@H]1CC[C@H](c2ccc(-c3cn4cc(C(=O)NCc5cc(OC(F)(F)F)ccc5F)nc4s3)cc2)CC1 [Compound 51, 2-((1r,4r)-4-(4-(6-((2-Fluoro-5-(trifluoromethoxy)benzyl)carbamoyl)imidazo[2,1-b]thiazol-2-yl)phenyl)cyclohexyl)acetic acid]"
< 10,,< 10,"O=C(O)C[C@H]1CC[C@H](c2ccc(-c3cn4cc(C(=O)Nc5cccc(OC(F)(F)F)c5)nc4s3)cc2)CC1 [Compound 52, 2-((1r,4r)-4-(4-(6-((3-(Trifluoromethoxy)phenyl)carbamoyl)imidazo[2,1-b]thiazol-2-yl)-phenyl)cyclohexyl)acetic acid]"
< 100,,< 25,"CC(C)c1ccc(CNC(=O)c2cn3cc(-c4ccc([C@H]5CC[C@H](CC(=O)O)CC5)cc4)sc3n2)cc1 [Compound 53, 2-((1r,4r)-4-(4-(6-((4-Isopropylbenzyl)carbamoyl)imidazo[2,1-b]thiazol-2-yl)phenyl)cyclohexyl)acetic acid]"
< 25,,< 10,"O=C(O)C[C@H]1CC[C@H](c2ccc(-c3cn4cc(C(=O)NC5(c6cc(F)ccc6F)CC5)nc4s3)cc2)CC1 [Compound 54, 2-((1r,4r)-4-(4-(6-((1-(2,5-Difluorophenyl)cyclopropyl)carbamoyl)imidazo[2,1-b]thiazol-2-yl)phenyl)cyclohexyl)acetic acid]"
< 25,,< 10,"COc1ccc(OC(F)(F)F)cc1CNC(=O)c1cn2cc(-c3ccc([C@H]4CC[C@H](CC(=O)O)CC4)cc3)sc2n1 [Compound 55, 2-((1r,4r)-4-(4-(6-((2-Methoxy-5-(trifluoromethoxy)benzyl)carbamoyl)imidazo[2,1-b]-thiazol-2-yl)phenyl)cyclohexyl)acetic acid]"
< 50,,< 10,"O=C(O)C[C@H]1CC[C@H](c2ccc(-c3cn4cc(C(=O)NCc5ccc(OC(F)(F)F)cc5)nc4s3)cc2)CC1 [Compound 56, 2-((1r,4r)-4-(4-(6-((4-(Trifluoromethoxy)benzyl)carbamoyl)imidazo[2,1-b]thiazol-2-yl)-phenyl)cyclohexyl)acetic acid]"
< 125,,< 10,"CC(C)(C(=O)O)[C@H]1CC[C@H](c2ccc(-c3ccc4nc(C(=O)NCc5ccccc5)cn4c3)cc2)CC1 [Compound 65, 2-((1r,4r)-4-(4-(2-(Benzylcarbamoyl)imidazo[1,2-a]pyridin-6-yl)phenyl)cyclohexyl)-2-methylpropanoic acid]"
< 50,,< 10,"CC(C)(C(=O)O)[C@H]1CC[C@H](c2ccc(-c3ccc4nc(C(=O)NCc5ccc(OC(F)(F)F)cc5)cn4c3)cc2)CC1 [Compound 66, 2-Methyl-2-((1r,4r)-4-(4-(2-((4-(trifluoromethoxy)benzyl)carbamoyl)imidazo[1,2-a]pyridin-6-yl)phenyl)cyclohexyl)propanoic acid]"
< 50,,< 25,"Cc1cccc(Cl)c1CNC(=O)c1cn2cc(-c3ccc(C4CCC(C(C)(C)C(=O)O)CC4)cc3)ccc2n1 (centres unmarked) [Compound 67, 2-((1s,4s)-4-(4-(2-((2-Chloro-6-methylbenzyl)carbamoyl)imidazo[1,2-a]pyridin-6-yl)phenyl)cyclohexyl)-2-methylpropanoic acid]"
